Each structure is given as a SMILES string. ≈ marks a conversion by molar mass, not a printed value.

As a reminder, the Solubility is the concentration that dissolves in the medium under given conditions.

Common to all, as to assay type: physicochemical
Data set [1] is described as follows: Conductivities of polymers and nanocomposites in solution (Acorn TDS 5 Meter). Conditions: solvent as given in the compound name. The protocol: In order to characterize […] and related compounds, several methods were utilized. First, the DC SQUID (Superconducting Quantum Interference Device) magnetometer was used to measure magnetization of solid […] after 3 weeks and the […] base (control). Absorbance checks using spectrophotometer were performed on […] in solution. Conductivities in solution of […] were gauged by Acorn® TDS 5 Meter. […] To create β-carotene nanocomposites, the use of an appropriate solvent was crucial. […] Solutions of β-carotene nanocomposites were characterized by absorbance checks and conductivity measurements. […] Mixtures of β-carotene […] various other PANi-derived polymers are attained forming a variety of other composites.

Data set [2] in a line: Solubility of β-carotene in kwik-dri. The following applies: crudely determined. The protocol: (§1) β-carotene nanocomposites: To create β-carotene nanocomposites, the use of an appropriate solvent was crucial. Acetone, toluene, kwik-dri, and tetrahydrofuran (THF) were tested. The solubility of β-carotene in kwik-dri, a non-aromatic industrial solvent similar to toluene, was crudely determined. Solutions of β-carotene nanocomposites were characterized by absorbance checks and conductivity measurements. […] Mixtures of β-carotene with PANi emeraldine salt and various other PANi-derived polymers are attained forming a variety of other composites.

Data set [3] is described as follows: Degradability of β-carotene in toluene by absorbance over time. Conditions: absorbance graphs over several days. The protocol: as §1

Take `CC1=C(/C=C/C(C)=C/C=C/C(C)=C/C=C/C=C(C)/C=C/C=C(C)/C=C/C2=C(C)CCCC2(C)C)C(C)(C)CCC1` [β-carotene]: the Conductivity in data set [1] is listed as approximately 0 μS; in data set [1] (listed as Kwik-dri + β-carotene) it was 0.15 μS; in data set [1] (listed as THF + β-carotene), approximately 0 μS. In data set [2], the Solubility came to 500 µg/mL (≈ 931 µM). The Degradability result in data set [3] is given as “degradability in toluene was demonstrated”.

Source of the values: patent publication US7468150B2, “Synthesis of conducto-magnetic polymers as nano-transducers in biosensor design” (Board of Trustees of Michigan State University, priority 2005, dated 2008).
